In ChEMBL document CHEMBL4000146, “Synthesis, antiplasmodial activity and mechanistic studies of pyrimidine-5-carbonitrile and quinoline hybrids” (Eur J Med Chem, 2015):

What was measured:
Plasmodium falciparum [1] = experiment: Resistance index, ratio of IC50 for chloroquine-resistant asexual intraerythrocytic stage of Plasmodium falciparum Dd2 to IC50 for chloroquine-sensitive asexual intraerythrocytic stage of Plasmodium falciparum NF54; assay type: functional
L1210 = experiment: Cytotoxicity against mouse L1210 cells assessed as inhibition of cell proliferation by Coulter counter analysis; assay type: cell-based
CCRF-CEM = experiment: Cytotoxicity against human CEM cells assessed as inhibition of cell proliferation by Coulter counter analysis; assay type: cell-based
HeLa = experiment: Cytotoxicity against human HeLa cells assessed as inhibition of cell proliferation by Coulter counter analysis; assay type: cell-based
[2] = Selectivity index, ratio of IC50 for human HeLa cells to IC50 for chloroquine-sensitive asexual intraerythrocytic stage of Plasmodium falciparum NF54; assay type: toxicity, cell-based; details: read-out: Ratio IC50
[3] = Selectivity index, ratio of IC50 for human HeLa cells to IC50 for chloroquine-resistant asexual intraerythrocytic stage of Plasmodium falciparum Dd2; assay type: toxicity, cell-based; details: read-out: Ratio IC50
[4] = Cytotoxicity against human HEL cells assessed as alteration of normal cell morphology by microscopic analysis; assay type: cell-based
[5] = Cytotoxicity against human HEL cells assessed as inhibition of cell viability by colorimetric formazan-based MTS assay
[6] = Cytotoxicity against human HeLa cells assessed as alteration of normal cell morphology by microscopic analysis; assay type: cell-based
[7] = Cytotoxicity against african green monkey Vero cells assessed as alteration of normal cell morphology by microscopic analysis; assay type: cell-based; details: chlorocebus sabaeus
Human alphaherpesvirus 1 [8] = assay type: functional, cell-based; details: Human alphaherpesvirus 1, KOS, HEL
Human alphaherpesvirus 2 = assay type: functional, cell-based; details: Human alphaherpesvirus 2, G, HEL
Human alphaherpesvirus 1 [9] = assay type: functional, cell-based; details: Human alphaherpesvirus 1, KOS, HEL; remark: listed apart in the source
unidentified adenovirus = assay type: functional, cell-based; details: HEL
Coxsackievirus [10] = assay type: functional, cell-based; details: B4, HeLa
Human orthopneumovirus = assay type: functional, cell-based; details: human respiratory syncytial virus, HeLa
Human respirovirus 3 = assay type: functional; details: Human respirovirus 3, Vero
[11] = test system: Mammalian orthoreovirus 1; assay type: functional; details: Mammalian orthoreovirus 1, Vero
Sindbis virus = assay type: functional; details: Vero
Coxsackievirus [12] = assay type: functional; details: B4, Vero
Punta Toro virus = assay type: functional; details: Vero
Human betaherpesvirus 5 [13] = assay type: functional, cell-based; details: Human betaherpesvirus 5, AD169, HEL
Human betaherpesvirus 5 [14] = assay type: functional, cell-based; details: Human betaherpesvirus 5, Davis, HEL
Human alphaherpesvirus 3 [15] = assay type: functional, cell-based; details: Human alphaherpesvirus 3, strain Oka vaccine, HEL
Human alphaherpesvirus 3 [16] = assay type: functional, cell-based; details: Human alphaherpesvirus 3, 07-1, HEL
[17] = Cytotoxicity against MDCK cells assessed as alteration of normal cell morphology by microscopic analysis; assay type: cell-based, Canis lupus familiaris; details: dog
[18] = Cytotoxicity against MDCK cells assessed as inhibition of cell viability by colorimetric formazan-based MTS assay; parameters: species or system Canis lupus familiaris; details: dog
Plasmodium falciparum [19] = experiment: microbe, parasite or virus in culture; details: NF54
Plasmodium falciparum [20] = experiment: microbe, parasite or virus in culture; details: Dd2
Vaccinia virus = experiment: microbe, parasite or virus in culture; details: Orthopoxvirus vaccinia, HEL
[21] = test system: Vesicular stomatitis virus; experiment: microbe, parasite or virus in culture; details: HEL
[22] = test system: Vesicular stomatitis virus; experiment: microbe, parasite or virus in culture; details: HeLa
Influenza A virus [23] = experiment: microbe, parasite or virus in culture; details: H1N1, MDCK
Influenza A virus [24] = experiment: microbe, parasite or virus in culture; details: H3N2, MDCK
Influenza B virus = experiment: microbe, parasite or virus in culture; details: MDCK

Structure (SMILES)	MCC [4] [µM]	MCC [6] [µM]	MCC [7] [µM]	EC50 (Human alphaherpesvirus 1 [8]) [µM]	EC50 (Human alphaherpesvirus 2) [µM]	EC50 (Human alphaherpesvirus 1 [9]) [µM]	EC50 (Human orthopneumovirus) [µM]	EC50 [11] [µM]	EC50 (Sindbis virus) [µM]	EC50 (Coxsackievirus [12]) [µM]	EC50 (Human betaherpesvirus 5 [13]) [µM]	EC50 (Human betaherpesvirus 5 [14]) [µM]	EC50 (Human alphaherpesvirus 3 [15]) [µM]	EC50 (Human alphaherpesvirus 3 [16]) [µM]	CC50 [18] [µM]	EC50 (Vaccinia virus) [µM]	EC50 [21] [µM]	EC50 (Influenza A virus [23]) [µM]	EC50 (Influenza A virus [24]) [µM]	EC50 (Influenza B virus) [µM]	also measured
CSc1nc(NCCCNc2ccnc3cc(Cl)ccc23)c(C#N)c(-c2ccccc2)n1	20	100	100	> 4	> 4	> 4	> 20	> 20	> 20	> 20	> 4	> 4	> 4	> 4	10.3	> 4	> 4	> 4	> 4	> 4	Ratio IC50 (Plasmodium falciparum [1]): 2.38; IC50 (L1210): 4.7 µM; IC50 (CCRF-CEM): 4.7 µM; IC50 (HeLa): 11 µM; selectivity ratio [2]: 82.3; selectivity ratio [3]: 34.4; CC50 [5]: 43.4 µM; EC50 (unidentified adenovirus): > 20 µM; EC50 (Coxsackievirus [10]): > 20 µM; EC50 (Human respirovirus 3): > 20 µM; EC50 (Punta Toro virus): > 20 µM; MCC [17]: 20 µM; IC50 (Plasmodium falciparum [19]): 0.134 µM; IC50 (Plasmodium falciparum [20]): 0.319 µM; EC50 [22]: > 20 µM
CSc1nc(NCCCCNc2ccnc3cc(Cl)ccc23)c(C#N)c(-c2ccc([N+](=O)[O-])cc2)n1	4	4	4	> 0.8	> 0.8	> 0.8	> 0.8	> 0.8	> 0.8	> 0.8	> 0.8	> 0.8	> 0.8	> 0.8	2	> 0.8	> 0.8	> 0.8	> 0.8	> 0.8	Ratio IC50 (Plasmodium falciparum [1]): 12.13; IC50 (L1210): 0.96 µM; IC50 (CCRF-CEM): 0.76 µM; IC50 (HeLa): 0.89 µM; selectivity ratio [2]: 20.3; selectivity ratio [3]: 1.6; CC50 [5]: 1.7 µM; EC50 (unidentified adenovirus): > 0.8 µM; EC50 (Coxsackievirus [10]): > 0.8 µM; EC50 (Human respirovirus 3): > 0.8 µM; EC50 (Punta Toro virus): > 0.8 µM; MCC [17]: 4 µM; IC50 (Plasmodium falciparum [19]): 0.0438 µM; IC50 (Plasmodium falciparum [20]): 0.532 µM; EC50 [22]: > 0.8 µM
Nc1nc2c(ncn2COCCO)c(=O)[nH]1 [ACYCLOVIR]	250 to 400	–	–	0.2	0.1	10	–	–	–	–	1.24	0.51	1.69	49.3	–	> 250	> 250	–	–	–	–
N#Cc1c(NCCCCNc2ccnc3cc(Cl)ccc23)nc(N2CCOCC2)nc1-c1ccccc1	20	20	20	> 4	> 4	> 4	> 4	> 4	> 4	> 4	> 4	> 4	> 4	> 4	10.9	> 4	> 4	> 4	> 4	> 4	Ratio IC50 (Plasmodium falciparum [1]): 1.95; IC50 (L1210): 4.2 µM; IC50 (CCRF-CEM): 4.6 µM; IC50 (HeLa): 17 µM; selectivity ratio [2]: 86.3; selectivity ratio [3]: 44; CC50 [5]: 11.9 µM; EC50 (unidentified adenovirus): > 4 µM; EC50 (Coxsackievirus [10]): > 4 µM; EC50 (Human respirovirus 3): > 4 µM; EC50 (Punta Toro virus): > 4 µM; MCC [17]: 20 µM; IC50 (Plasmodium falciparum [19]): 0.198 µM; IC50 (Plasmodium falciparum [20]): 0.386 µM; EC50 [22]: > 4 µM
CSc1nc(NCCCCNc2ccnc3cc(Cl)ccc23)c(C#N)c(-c2ccc(C)cc2)n1	20	100	20	> 4	> 4	> 4	> 20	> 4	> 4	> 4	> 4	> 4	> 4	> 4	9.9	> 4	> 4	> 4	> 4	> 4	Ratio IC50 (Plasmodium falciparum [1]): 4.54; IC50 (L1210): 4.3 µM; IC50 (CCRF-CEM): 4.9 µM; IC50 (HeLa): 5 µM; selectivity ratio [2]: 41.9; selectivity ratio [3]: 9.2; CC50 [5]: 8.2 µM; EC50 (unidentified adenovirus): > 4 µM; EC50 (Coxsackievirus [10]): > 20 µM; EC50 (Human respirovirus 3): > 4 µM; EC50 (Punta Toro virus): > 4 µM; MCC [17]: 20 µM; IC50 (Plasmodium falciparum [19]): 0.119 µM; IC50 (Plasmodium falciparum [20]): 0.543 µM; EC50 [22]: > 20 µM
NC(=O)c1ncn([C@@H]2O[C@H](CO)[C@@H](O)[C@H]2O)n1 [RIBAVIRIN]	–	> 250	> 250	–	–	–	10	> 250	> 250	250	–	–	–	–	100	–	–	7.2 to 9	6.9 to 9	4 to 4.5	–
C[C@H]1[C@H](OC(=O)CCC(=O)O)O[C@@H]2O[C@@]3(C)CC[C@H]4[C@H](C)CC[C@@H]1[C@@]24OO3 [ARTESUNATE]	–	–	–	–	–	–	–	–	–	–	–	–	–	–	–	–	–	–	–	–	Ratio IC50 (Plasmodium falciparum [1]): 1.38; IC50 (Plasmodium falciparum [19]): 0.0126 µM; IC50 (Plasmodium falciparum [20]): 0.0174 µM
CCN(CC)CCCC(C)Nc1ccnc2cc(Cl)ccc12 (stereo not drawn) [CHLOROQUINE]	≥ 20	> 100	> 100	> 20	> 20	> 20	> 100	> 100	> 100	> 100	> 20	> 4	> 4	> 4	55.6	> 20	> 20	> 20	> 20	> 20	IC50 (L1210): 15 µM; IC50 (CCRF-CEM): 23 µM; IC50 (HeLa): 18 µM; CC50 [5]: 58.5 µM; EC50 (unidentified adenovirus): > 20 µM; EC50 (Coxsackievirus [10]): > 100 µM; EC50 (Human respirovirus 3): > 100 µM; EC50 (Punta Toro virus): > 100 µM; MCC [17]: 100 µM; EC50 [22]: > 100 µM
